Source: patent EP2077105A1, “Ophthalmic Micellar Compositions with Enhanced Stability” (Novagali Pharma S.A., priority 2008, dated 2009)

Assay: Zeta potential of emulsion surface
Format: physicochemical
Details: 0.02% BAK and 0.002% CKC in emulsion
Excerpt: All the eye drops were supplied by Novagali Pharma (Evry, France) and were sterile with physiological pH and osmolality. The present Applicants chose to compare 0.02% BAK to 0.002% CKC since these two QAC concentrations confer equivalent positive charge to the emulsion surface (zeta potential around 20 mV).

zeta potential: around 20 mV
SMILES: CCCCCCCCCCCCCCCC[N+](C)(C)Cc1ccccc1 [Cetalkonium chloride, cetalkonium chloride]
